Measured values published in patent EP1746087A1, “Derivates of 3-indolylmethylene having cytostatic properties” (Universitaet Regensburg, priority 2005, dated 2007).
Like-named read-outs stand apart in the source and are kept apart here. One block for each compound: values may come before it.

Key:
Type in all cases: cell-based, menschlich
[1] = test system: MCF-7-Mammacarcinomzellen; test: Growth inhibition of MCF-7 mammary carcinoma cells in vitro (cytostatic effect); conditions: MCF-7 cells, read-out: IC50 Hemmwirkung auf das Wachstum
Description: (§1) Die cytostatische Wirkung der erfindungsgemäßen Verbindungen wurde an zwei verschiedenen menschlichen Mammacarcinomzellinien in vitro bestimmt (M. Goldbrunner et al., J.Med.Chem. 1997,40,3525). Es handelt sich dabei um die hormonunabhängige MDA-MB-231-Zellinie und die estrogensensitive MCF-7-Linie. Die MDA-MB-231-Zellen wurden auch für die durchflusszytometrischen Analysen zur Zellzyklusverteilung herangezogen (M.J.J. Jaroszeski und R. Heller, Flow Cytometry Protocols, Humana Press, 1998, Totowa New Jersey). Besonders überraschend war, dass diese synthetischen Verbindungen häufig bereits im Konzentrationsbereich von 10 bis 100 nanomolar das Wachstum von menschlichen Tumorzellen stark hemmen, obwohl sie nur ein relativ niedriges Molekulargewicht aufweisen (MG ~ 320 - 500) (Tabelle 2 und 3, Abb. 2). Potente Therapeutika, die ebenfalls in den Zellzyklus eingreifen, besitzen Molekulargewichte im Bereich von 825 (Vincristin als Base) und 850 (Paclitaxel).

[2] = test system: MDA-MB-231-Mammacarcinomzellen; test: Flow-cytometric analysis of cell cycle distribution
Description: as §1

[3] = test system: MDA-MB-231-Brustkrebszellen; test: Growth inhibition of MDA-MB-231 breast cancer cells in vitro (cytostatic effect); conditions: MDA-MB-231 cells, read-out: IC50 Hemmwirkung auf das Wachstum
Description: as §1

IC50 ([3]; Homo sapiens): 46 nM
SMILES: CCCCCCc1ccc2[nH]c(-c3ccc(OC)cc3)c(C=C(C#N)C#N)c2c1 [Verbindung 9, [5-n-Hexyl-2-(4-methoxyphenyl)-indol-3-yl]-methylenpropandinitril]
IC50 ([1]; Homo sapiens, MCF7): 25 nM
Debris % ([2]; Konz. 0.1 µM): 6.1%
G1/G0 % ([2]; Konz. 0.1 µM): 46.2%
G2/M % ([2]; Konz. 0.1 µM): 22.4%
S % ([2]; Konz. 0.1 µM): 25.3%
Debris % ([2]; Konz. 0.5 µM): 22.6%
G1/G0 % ([2]; Konz. 0.5 µM): 7.4%
G2/M % ([2]; Konz. 0.5 µM): 53.9%
S % ([2]; Konz. 0.5 µM): 16.1%
Debris % ([2]; Konz. 1.0 µM): 15.9%
G1/G0 % ([2]; Konz. 1.0 µM): 7.1%
G2/M % ([2]; Konz. 1.0 µM): 57.3%
S % ([2]; Konz. 1.0 µM): 19.7%

IC50 [3]: 32 nM
SMILES: CCCCc1ccc2[nH]c(-c3ccc(C(F)(F)F)cc3)c(C=NC)c2c1 [Verbindung 19, 5-n-Butyl-2-[4-(trifluormethyl)-phenyl]-indol-3-carbaldehyd-methylimin]
IC50 [1]: 140 nM
Debris % ([2]; Konz. 0.01 µM): 4.4%
G1/G0 % ([2]; Konz. 0.01 µM): 43.8%
G2/M % ([2]; Konz. 0.01 µM): 36.6%
S % ([2]; Konz. 0.01 µM): 14.0%
Debris % ([2]; Konz. 0.05 µM): 14.6%
G1/G0 % ([2]; Konz. 0.05 µM): 38.9%
G2/M % ([2]; Konz. 0.05 µM): 30.8%
S % ([2]; Konz. 0.05 µM): 15.3%
Debris % ([2]; Konz. 0.1 µM): 27.1%
G1/G0 % ([2]; Konz. 0.1 µM): 5.5%
G2/M % ([2]; Konz. 0.1 µM): 59.3%
S % ([2]; Konz. 0.1 µM): 7.2%
Debris % ([2]; Konz. 0.5 µM): 20.5%
G1/G0 % ([2]; Konz. 0.5 µM): 6.3%
G2/M % ([2]; Konz. 0.5 µM): 59.8%
S % ([2]; Konz. 0.5 µM): 11.1%

IC50 ([3]; Homo sapiens): 40 nM
SMILES: CCCCc1ccc2[nH]c(-c3ccc(OC)cc3)c(C=NO)c2c1 [Verbindung 20, 5-n-Butyl-2-(4-methoxyphenyl)-indol-3-carbaldehyd-oxim]
IC50 ([1]; Homo sapiens, MCF7): 210 nM
Debris % ([2]; Konz. 0.05 µM): 7.3%
G1/G0 % ([2]; Konz. 0.05 µM): 50.0%
G2/M % ([2]; Konz. 0.05 µM): 30.0%
S % ([2]; Konz. 0.05 µM): 13.2%
Debris % ([2]; Konz. 0.1 µM): 12.2%
G1/G0 % ([2]; Konz. 0.1 µM): 38.6%
G2/M % ([2]; Konz. 0.1 µM): 34.9%
S % ([2]; Konz. 0.1 µM): 14.4%
Debris % ([2]; Konz. 0.5 µM): 9.6%
G1/G0 % ([2]; Konz. 0.5 µM): 9.0%
G2/M % ([2]; Konz. 0.5 µM): 64.6%
S % ([2]; Konz. 0.5 µM): 14.4%
Debris % ([2]; Konz. 1.0 µM): 13.8%
G1/G0 % ([2]; Konz. 1.0 µM): 9.6%
G2/M % ([2]; Konz. 1.0 µM): 54.8%
S % ([2]; Konz. 1.0 µM): 21.2%

IC50 [3]: 97 nM
SMILES: CCCCc1ccc2[nH]c(-c3ccc(C(F)(F)F)cc3)c(C=NNC(=O)c3cccnc3)c2c1 [Verbindung 25, 5-Butyl-2-[4-(trifluormethyl)-phenyl]-indol-3-carbaldehyd-nicotinylhydrazone]
IC50 [1]: 260 nM
Debris % ([2]; Konz. 0.01 µM): 2.3%
G1/G0 % ([2]; Konz. 0.01 µM): 50.8%
G2/M % ([2]; Konz. 0.01 µM): 26.3%
S % ([2]; Konz. 0.01 µM): 21.7%
Debris % ([2]; Konz. 0.05 µM): 2.7%
G1/G0 % ([2]; Konz. 0.05 µM): 51.2%
G2/M % ([2]; Konz. 0.05 µM): 24.1%
S % ([2]; Konz. 0.05 µM): 23.1%
Debris % ([2]; Konz. 0.1 µM): 2.6%
G1/G0 % ([2]; Konz. 0.1 µM): 48.8%
G2/M % ([2]; Konz. 0.1 µM): 24.9%
S % ([2]; Konz. 0.1 µM): 24.4%
Debris % ([2]; Konz. 0.5 µM): 6.9%
G1/G0 % ([2]; Konz. 0.5 µM): 11.4%
G2/M % ([2]; Konz. 0.5 µM): 75.2%
S % ([2]; Konz. 0.5 µM): 11.0%
